The test system of data set [1] is Mitochondrial SOD 2. As to the kind of experiment: up-regulation of anti-oxidant enzyme SOD by glutathione. The format is cell-based. The following applies: glutathione up-regulating anti-oxidant enzymes.
For data set [2] the following is noted: unmodified glutathione, cited from earlier work.

On to `N[C@@H](CCC(=O)N[C@@H](CS)C(=O)NCC(=O)O)C(=O)O` [glutathione], for which, in data set [1], the SOD increase amounted to 182%. In addition, the “half-life in the blood stream” value in data set [2] (blood stream) was “about a minute and a half”. Also, the “half-life in the blood” value in data set [2] (blood) is “around 120 seconds”.

The values are drawn from patent US20100021398A1, “COMPOSITIONS AND METHODS FOR LIGHTENING SKIN AND PROTECTING SKIN FROM ULTRAVIOLET RADIATION WITH GLUTATHIONE” (priority 2008, published 2010).
